Test results: the supplement of paper PMC8741786
≈ marks a conversion by molar mass, not a printed value.

Key:
Test in all cases: minimum inhibitory concentration (ETEST)
[1] = test system: Neisseria bacilliformis; conditions: isolate id (sample isolate): Co000780_5; population: general population; antibiotic use in previous 6 months: No
Procedure: (§1)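 Oropharyngeal Neisseria isolates from MSM and employees in Belgium were identified to species by MALDI-TOF MS. MICs of azithromycin, ceftriaxone and ciprofloxacin were determined by ETEST on GC agar after 24 h at 36.5 °C and 5-7% CO2, in mg/L. Values beyond the strip range are reported as >256 (azithromycin) or <0.016 (ceftriaxone); isolates that did not grow are NA.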

[2] = test system: Neisseria cinerea; conditions: population: general population, antibiotic use in previous 6 months: No
Procedure: as §1

[3] = test system: Neisseria elongata; conditions: population: general population, antibiotic use in previous 6 months: No
Procedure: as §1

[4] = test system: Neisseria gonorrhoeae; conditions: isolate id (sample isolate): 19113052_3; population: MSM; antibiotic use in previous 6 months: No
Procedure: as §1

[5] = test system: Neisseria lactamica; conditions: population: general population, antibiotic use in previous 6 months: No
Procedure: as §1

[6] = test system: Neisseria mucosa/macacae
Procedure: as §1

[7] = test system: Neisseria subflava/flavescens/perflava
Procedure: as §1

CO/N=C(\C(=O)N[C@@H]1C(=O)N2C(C(=O)O)=C(CSc3nc(=O)c(O)nn3C)CS[C@H]12)c1csc(N)n1 [ceftriaxone]
minimum inhibitory concentration [1]: 1.5 µg/mL (≈ 2.7 µM) | minimum inhibitory concentration ([2]; isolate id (sample isolate): Co000769_3): < 0.016 µg/mL | minimum inhibitory concentration ([2]; isolate id (sample isolate): Co000776_4): < 0.016 µg/mL | minimum inhibitory concentration ([2]; isolate id (sample isolate): Co000776_5): < 0.016 µg/mL | minimum inhibitory concentration ([2]; isolate id (sample isolate): Co000782_1): < 0.016 µg/mL | minimum inhibitory concentration ([3]; isolate id (sample isolate): Co000767_3): 0.19 µg/mL (≈ 0.343 µM) | minimum inhibitory concentration ([3]; isolate id (sample isolate): Co000780_1): 0.047 µg/mL (≈ 0.0847 µM) | minimum inhibitory concentration ([3]; isolate id (sample isolate): Co000783_4): 0.023 µg/mL (≈ 0.0415 µM) | minimum inhibitory concentration [4]: < 0.016 µg/mL | minimum inhibitory concentration ([5]; isolate id (sample isolate): Co000761_1): < 0.016 µg/mL | minimum inhibitory concentration ([5]; isolate id (sample isolate): Co000771_1): < 0.016 µg/mL | minimum inhibitory concentration ([6]; isolate id (sample isolate): 19041762_2, population: MSM, antibiotic use in previous 6 months: Yes): 0.032 µg/mL (≈ 0.0577 µM) | minimum inhibitory concentration ([6]; isolate id (sample isolate): 19051904_1, population: MSM, antibiotic use in previous 6 months: Yes): 0.047 µg/mL (≈ 0.0847 µM) | minimum inhibitory concentration ([6]; isolate id (sample isolate): 19052394_2, population: MSM, antibiotic use in previous 6 months: Yes): 0.032 µg/mL (≈ 0.0577 µM) | minimum inhibitory concentration ([6]; isolate id (sample isolate): 19062968_1, population: MSM, antibiotic use in previous 6 months: Yes): 0.064 µg/mL (≈ 0.115 µM) | minimum inhibitory concentration ([6]; isolate id (sample isolate): 19081774_2, population: MSM, antibiotic use in previous 6 months: No): 0.094 µg/mL (≈ 0.169 µM) | minimum inhibitory concentration ([6]; isolate id (sample isolate): 19111422_4, population: MSM, antibiotic use in previous 6 months: No): 0.032 µg/mL (≈ 0.0577 µM) | minimum inhibitory concentration ([6]; isolate id (sample isolate): 19111422_7, population: MSM, antibiotic use in previous 6 months: No): 0.032 µg/mL (≈ 0.0577 µM) | minimum inhibitory concentration ([6]; isolate id (sample isolate): Co000770_5, population: general population, antibiotic use in previous 6 months: No): 0.047 µg/mL (≈ 0.0847 µM) | minimum inhibitory concentration ([6]; isolate id (sample isolate): Co000771_4, population: general population, antibiotic use in previous 6 months: No): 0.064 µg/mL (≈ 0.115 µM) | minimum inhibitory concentration ([6]; isolate id (sample isolate): Co000772_3, population: general population, antibiotic use in previous 6 months: No): 0.032 µg/mL (≈ 0.0577 µM) | minimum inhibitory concentration ([6]; isolate id (sample isolate): Co000773_3, population: general population, antibiotic use in previous 6 months: No): 0.032 µg/mL (≈ 0.0577 µM) | minimum inhibitory concentration ([6]; isolate id (sample isolate): Co000779_1, population: general population, antibiotic use in previous 6 months: No): 0.125 µg/mL (≈ 0.225 µM) | minimum inhibitory concentration ([6]; isolate id (sample isolate): Co000783_3, population: general population, antibiotic use in previous 6 months: No): 0.032 µg/mL (≈ 0.0577 µM) | minimum inhibitory concentration ([6]; isolate id (sample isolate): Co000783_6, population: general population, antibiotic use in previous 6 months: No): 0.032 µg/mL (≈ 0.0577 µM) | minimum inhibitory concentration ([6]; isolate id (sample isolate): Co000787_3, population: general population, antibiotic use in previous 6 months: No): 0.094 µg/mL (≈ 0.169 µM) | minimum inhibitory concentration ([6]; isolate id (sample isolate): Co000788_1, population: general population, antibiotic use in previous 6 months: No): 0.032 µg/mL (≈ 0.0577 µM) | minimum inhibitory concentration ([6]; isolate id (sample isolate): Co000788_4, population: general population, antibiotic use in previous 6 months: No): 0.032 µg/mL (≈ 0.0577 µM) | minimum inhibitory concentration ([7]; isolate id (sample isolate): 19041762_1, population: MSM, antibiotic use in previous 6 months: Yes): 0.016 µg/mL (≈ 0.0289 µM) | minimum inhibitory concentration ([7]; isolate id (sample isolate): 19041762_1.1, population: MSM, antibiotic use in previous 6 months: Yes): 0.023 µg/mL (≈ 0.0415 µM) | minimum inhibitory concentration ([7]; isolate id (sample isolate): 19041780_1, population: MSM, antibiotic use in previous 6 months: Yes): 0.064 µg/mL (≈ 0.115 µM) | minimum inhibitory concentration ([7]; isolate id (sample isolate): 19042150_1, population: MSM, antibiotic use in previous 6 months: Yes): 0.5 µg/mL (≈ 0.902 µM) | minimum inhibitory concentration ([7]; isolate id (sample isolate): 19042150_3, population: MSM, antibiotic use in previous 6 months: Yes): 0.047 µg/mL (≈ 0.0847 µM) | minimum inhibitory concentration ([7]; isolate id (sample isolate): 19042756_1, population: MSM, antibiotic use in previous 6 months: Yes): 0.023 µg/mL (≈ 0.0415 µM) | minimum inhibitory concentration ([7]; isolate id (sample isolate): 19042756_2, population: MSM, antibiotic use in previous 6 months: Yes): 0.023 µg/mL (≈ 0.0415 µM) | minimum inhibitory concentration ([7]; isolate id (sample isolate): 19043201_1.1, population: MSM, antibiotic use in previous 6 months: No): 0.047 µg/mL (≈ 0.0847 µM) | minimum inhibitory concentration ([7]; isolate id (sample isolate): 19043201_2.1, population: MSM, antibiotic use in previous 6 months: No): 1 µg/mL (≈ 1.8 µM) | minimum inhibitory concentration ([7]; isolate id (sample isolate): 19043201_3, population: MSM, antibiotic use in previous 6 months: No): 0.064 µg/mL (≈ 0.115 µM) | minimum inhibitory concentration ([7]; isolate id (sample isolate): 19043274_3, population: MSM, antibiotic use in previous 6 months: Yes): 0.064 µg/mL (≈ 0.115 µM) | minimum inhibitory concentration ([7]; isolate id (sample isolate): 19050474_1, population: MSM, antibiotic use in previous 6 months: No): 0.047 µg/mL (≈ 0.0847 µM) | minimum inhibitory concentration ([7]; isolate id (sample isolate): 19050514_1, population: MSM, antibiotic use in previous 6 months: Yes): 0.047 µg/mL (≈ 0.0847 µM) | minimum inhibitory concentration ([7]; isolate id (sample isolate): 19050949_1, population: MSM, antibiotic use in previous 6 months: No): 0.032 µg/mL (≈ 0.0577 µM) | minimum inhibitory concentration ([7]; isolate id (sample isolate): 19050949_2, population: MSM, antibiotic use in previous 6 months: No): 0.023 µg/mL (≈ 0.0415 µM) | minimum inhibitory concentration ([7]; isolate id (sample isolate): 19050949_2.1, population: MSM, antibiotic use in previous 6 months: No): 0.016 µg/mL (≈ 0.0289 µM) | minimum inhibitory concentration ([7]; isolate id (sample isolate): 19051904_2, population: MSM, antibiotic use in previous 6 months: Yes): 0.064 µg/mL (≈ 0.115 µM) | minimum inhibitory concentration ([7]; isolate id (sample isolate): 19051904_3, population: MSM, antibiotic use in previous 6 months: Yes): 0.064 µg/mL (≈ 0.115 µM) | minimum inhibitory concentration ([7]; isolate id (sample isolate): 19052394_1, population: MSM, antibiotic use in previous 6 months: Yes): 0.032 µg/mL (≈ 0.0577 µM) | minimum inhibitory concentration ([7]; isolate id (sample isolate): 19052394_1.1, population: MSM, antibiotic use in previous 6 months: Yes): 0.023 µg/mL (≈ 0.0415 µM) | minimum inhibitory concentration ([7]; isolate id (sample isolate): 19060089_1, population: MSM, antibiotic use in previous 6 months: Yes): 0.047 µg/mL (≈ 0.0847 µM) | minimum inhibitory concentration ([7]; isolate id (sample isolate): 19062994_1, population: MSM, antibiotic use in previous 6 months: Yes): 0.047 µg/mL (≈ 0.0847 µM) | minimum inhibitory concentration ([7]; isolate id (sample isolate): Co000761_2, population: general population, antibiotic use in previous 6 months: No): 0.023 µg/mL (≈ 0.0415 µM) | minimum inhibitory concentration ([7]; isolate id (sample isolate): Co000761_3, population: general population, antibiotic use in previous 6 months: No): 0.032 µg/mL (≈ 0.0577 µM) | minimum inhibitory concentration ([7]; isolate id (sample isolate): Co000761_5, population: general population, antibiotic use in previous 6 months: No): 0.016 µg/mL (≈ 0.0289 µM) | minimum inhibitory concentration ([7]; isolate id (sample isolate): Co000761_6, population: general population, antibiotic use in previous 6 months: No): 0.016 µg/mL (≈ 0.0289 µM) | minimum inhibitory concentration ([7]; isolate id (sample isolate): Co000762_3, population: general population, antibiotic use in previous 6 months: No): 0.094 µg/mL (≈ 0.169 µM) | minimum inhibitory concentration ([7]; isolate id (sample isolate): Co000762_4, population: general population, antibiotic use in previous 6 months: No): 0.094 µg/mL (≈ 0.169 µM) | minimum inhibitory concentration ([7]; isolate id (sample isolate): Co000763_2, population: general population, antibiotic use in previous 6 months: No): 0.032 µg/mL (≈ 0.0577 µM) | minimum inhibitory concentration ([7]; isolate id (sample isolate): Co000764_1, population: general population, antibiotic use in previous 6 months: No): 0.032 µg/mL (≈ 0.0577 µM) | minimum inhibitory concentration ([7]; isolate id (sample isolate): Co000764_2, population: general population, antibiotic use in previous 6 months: No): 0.023 µg/mL (≈ 0.0415 µM) | minimum inhibitory concentration ([7]; isolate id (sample isolate): Co000765_2, population: general population, antibiotic use in previous 6 months: No): 0.047 µg/mL (≈ 0.0847 µM) | minimum inhibitory concentration ([7]; isolate id (sample isolate): Co000765_3, population: general population, antibiotic use in previous 6 months: No): 0.032 µg/mL (≈ 0.0577 µM) | minimum inhibitory concentration ([7]; isolate id (sample isolate): Co000765_4, population: general population, antibiotic use in previous 6 months: No): 0.023 µg/mL (≈ 0.0415 µM) | minimum inhibitory concentration ([7]; isolate id (sample isolate): Co000766_1, population: general population, antibiotic use in previous 6 months: No): 0.023 µg/mL (≈ 0.0415 µM) | minimum inhibitory concentration ([7]; isolate id (sample isolate): Co000766_3, population: general population, antibiotic use in previous 6 months: No): 0.032 µg/mL (≈ 0.0577 µM)
